According to patent US20100009014A1, “Use of composition for manufacture of medicant and method for inhibiting formation of body fat” (Maxluck Biotechnology Corp., priority 2008, published 2010):

Assay: Epididymal fat weight and body weight, lactoferrin vs trivalent chromium vs combination (Test Example 5)
Format: in vivo, C57BL/6JNarl mice
Conditions: fed 7 weeks; for Body weight / Epididymal fat weight: high-fat diet
Description: The C57BL/6JNarl mice (N=70) are fed with a mouse diet (high-fat Rodent TestDiet, PMI Nutrition International Inc., MO, U.S.A.; 67% of calories provided by fat). The C57BL/6JNarl mice are randomly divided into seven groups and there are ten mice in each group. In one experimental group, the mice are fed with the mouse diet mixed with lactoferrin (NZMP lactoferrin, New Zealand, low dose: 40 mg/kg BW/day, high dose: 80 mg/kg BW/day). In another experimental group, the mice are fed with the mouse diet mixed with trivalent chromium (chromium (III) chloride hexahydrate, low dose: 40 μg/kg BW/day Cr^3+, high dose: 80 μg/kg BW/day Cr^3+). In yet another experimental group, the mice are fed with the mouse diet mixed with a lactoferrin/trivalent chromium composition (low dose: lactoferrin of 40 mg/kg BW/day with Cr^3+ of 40 μg/kg BW/day, high dose: lactoferrin of 80 mg/kg BW/day with Cr^3+ of 80 μg/kg BW/day). In the control group, the mice are fed with the mouse diet containing no other additive. The C57BL/6JNarl mice aged 8 weeks are fed for 7 weeks and then sacrificed to measure the weight of Epididymal fat and body weight, as shown in Table 5.
Accordingly, it can be known that the lactoferrin/trivalent chromium composition provides more significant efficiency in comparison to single lactoferrin or trivalent chromium.

[1] = High dose (lactoferrin 80 mg/kg BW/day and/or Cr3+ 80 μg/kg BW/day)
[2] = Low dose (lactoferrin 40 mg/kg BW/day and/or Cr3+ 40 μg/kg BW/day)

SMILES: O.O.O.O.O.O.[Cl][Cr]([Cl])[Cl] [Trivalent Chromium, chromium (III) chloride hexahydrate]
- Body weight [1]: 27.7 ± 1.35 g
- Epididymal fat weight [1]: 0.82 ± 0.2 g
- Body weight [2]: 27.8 ± 1.33 g
- Epididymal fat weight [2]: 0.78 ± 0.16 g
- Epididymal fat weight and body weight vs control group (in words): cannot achieve significant efficiency
